Measurements reported in ChEMBL document CHEMBL5625173, “Antimycobacterial pyridine carboxamides: From design to in vivo activity” (Eur J Med Chem, 2023).
≈ marks a conversion by molar mass, not a printed value.

What was measured:
Assay type in all cases: functional
[1] = tested on: Mycobacterium tuberculosis; assay: Antimycobacterial activity against Mycobacterium tuberculosis H37Rv overexpressing folP1 by alamar blue staining based microplate analysis
[2] = tested on: Mycobacterium tuberculosis; assay: Antimycobacterial activity against Mycobacterium tuberculosis H37Rv overexpressing ribD by alamar blue staining based microplate analysis
[3] = tested on: Mycobacterium tuberculosis; assay: Antimycobacterial activity against Mycobacterium tuberculosis H37Rv overexpressing dfrA by alamar blue staining based microplate analysis
[4] = tested on: Mycobacterium tuberculosis; assay: Antimycobacterial activity against Mycobacterium tuberculosis H37Rv overexpressing folC by alamar blue staining based microplate analysis

SMILES | MIC [1] [µg/mL] | MIC [2] [µg/mL] | MIC [3] [µg/mL] | MIC [4] [µg/mL]
O=C(Nc1ccc(C(=O)O)c(O)c1)c1ccc2ccccc2n1 | 8 (≈ 25.9 µM) | 8 (≈ 25.9 µM) | 8 (≈ 25.9 µM) | 8 (≈ 25.9 µM)
O=C(Nc1ccc(C(=O)[O-])c(O)c1)c1ccc2ccccc2n1.[Na+] | 8 | 8 | 8 | 8
Nc1ccc(C(=O)O)c(O)c1 [AMINOSALICYLIC ACID] | 0.02 (≈ 0.131 µM) | 2.5 (≈ 16.3 µM) | > 5 | 0.02 (≈ 0.131 µM)
